Earlier results on one molecule are cited in patent publication US20140044668A1, “Methods for Predicting Cardiovascular Risks and Responsiveness to Statin Therapy Using SNPs” (THE OHIO STATE UNIVERSITY, priority 2011, published 2014).

This series concerns the target T1, CETP (Homo sapiens, UniProt P11597).
T1 sequence (P11597 18-493): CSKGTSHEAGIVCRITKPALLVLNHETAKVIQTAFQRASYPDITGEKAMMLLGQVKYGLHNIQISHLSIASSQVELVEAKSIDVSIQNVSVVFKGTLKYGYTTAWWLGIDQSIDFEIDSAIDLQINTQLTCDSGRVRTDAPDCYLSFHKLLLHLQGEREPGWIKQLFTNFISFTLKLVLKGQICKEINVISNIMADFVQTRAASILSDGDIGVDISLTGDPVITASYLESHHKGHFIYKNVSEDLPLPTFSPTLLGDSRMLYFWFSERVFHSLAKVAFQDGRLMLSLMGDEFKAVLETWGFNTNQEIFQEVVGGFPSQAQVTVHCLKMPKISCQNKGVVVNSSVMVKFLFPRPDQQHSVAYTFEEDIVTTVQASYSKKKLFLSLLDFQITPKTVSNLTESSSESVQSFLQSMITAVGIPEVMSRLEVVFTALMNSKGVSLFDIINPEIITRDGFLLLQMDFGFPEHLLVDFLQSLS
To be noted: in vivo.

Take `CCOC(=O)N1c2ccc(C(F)(F)F)cc2[C@@H](N(Cc2cc(C(F)(F)F)cc(C(F)(F)F)c2)C(=O)OC)C[C@H]1CC` [torcetrapib]: the HDL entry is reported as “HDL increased”, the LDL result is given as “LDL decreased substantially” and the cardiovascular events entry is listed as “increase cardiovascular events”.
